# Earlier results, collected in US11839630B2, “CAR-T cells targeting IL-1RAP and their use” (ETABLISSEMENT FRANCAIS DU SANG, priority 2017, dated 2023).
# Legend:
# CML [1] = details: cited from earlier work
# CML [2] = details: cited from earlier work; remark: listed apart in the source
structure (smiles),measurement,setting,value
Cc1ccc(NC(=O)c2ccc(CN3CCN(C)CC3)cc2)cc1Nc1nccc(-c2cccnc2)n1 [Imatinib],patients relapsed after discontinuation,"CML [1]; 42 of 69 patients, treatment of more than 2 years discontinued",61%
same,probability of persistent molecularly undetectable leukemia,"CML [1]; at 12 months, 69 patients",41%
same,rate of molecular relapse after stopping TKI,CML [2]; n=100 patients with complete molecular response,61%
same,median time of molecular relapse,CML [2]; n=100 patients,2.5 months
